We go through 51 molecules from ChEMBL document CHEMBL5260833, “An overview of quinazolines: Pharmacological significance and recent developments” (Eur J Med Chem, 2018).

The subject of assay [1] is Rattus norvegicus. Kind of assay: Inhibition of AII induced rat assessed as vasoconstrictor at 15 mg/kg, iv. In kind it is functional.
Assay [2] deals with T1, Type-1 angiotensin II receptor A (Rattus norvegicus, UniProt P25095).
T1 sequence (P25095 whole entry): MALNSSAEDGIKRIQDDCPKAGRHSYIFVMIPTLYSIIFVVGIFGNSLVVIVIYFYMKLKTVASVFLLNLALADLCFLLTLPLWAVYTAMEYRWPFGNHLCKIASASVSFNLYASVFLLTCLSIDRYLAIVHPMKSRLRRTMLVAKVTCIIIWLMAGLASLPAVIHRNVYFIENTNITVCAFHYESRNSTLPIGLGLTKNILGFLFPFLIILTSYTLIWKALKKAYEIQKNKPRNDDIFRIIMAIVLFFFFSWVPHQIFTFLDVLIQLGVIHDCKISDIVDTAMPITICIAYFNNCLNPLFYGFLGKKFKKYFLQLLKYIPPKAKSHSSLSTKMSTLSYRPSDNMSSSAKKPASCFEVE
Description: Inhibition of rat adrenal cortex angiotensin II. In kind it is tissue-based.

In a further assay the test system is Fusarium graminearum. Description: Antifungal activity against Gibberella zeae assessed as bacterial growth inhibition at 50 ug/ml incubated for 5 days relative to control. The settings on record: 120 h, time 5 day. It counts as functional.
The test system of a further assay is Fusarium oxysporum. Description: Antifungal activity against Fusarium oxysporum assessed as bacterial growth inhibition at 50 ug/ml incubated for 5 days relative to control. In kind it is functional. The settings on record: 120 h, time 5 day.
The test system of a further assay is Cytospora mali. Kind of assay: Antifungal activity against Valsa mali assessed as bacterial growth inhibition at 50 ug/ml incubated for 5 days relative to control. The settings on record: 120 h, time 5 day. In kind it is functional.
Assay [3] relates to Rattus norvegicus. Kind of assay: Inhibition of AII induced mean arterial blood pressure in rat assessed as vasoconstrictor at 1 mg/kg, po. In kind it is functional.
Assay [4] concerns the target T2, Type-2 angiotensin II receptor (Rattus norvegicus, UniProt P35351).
T2 sequence (P35351 whole entry): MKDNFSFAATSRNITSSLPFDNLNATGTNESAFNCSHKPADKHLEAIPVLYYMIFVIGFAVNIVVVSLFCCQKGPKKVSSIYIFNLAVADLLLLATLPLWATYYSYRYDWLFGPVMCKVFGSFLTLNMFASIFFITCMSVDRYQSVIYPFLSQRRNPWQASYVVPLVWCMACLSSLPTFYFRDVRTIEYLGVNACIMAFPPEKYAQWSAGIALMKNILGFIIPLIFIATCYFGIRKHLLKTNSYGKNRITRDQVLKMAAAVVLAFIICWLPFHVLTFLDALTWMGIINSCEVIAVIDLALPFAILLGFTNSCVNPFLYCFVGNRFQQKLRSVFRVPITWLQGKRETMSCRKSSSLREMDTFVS
Kind of assay: Binding affinity to AT2 in rat brain. In kind it is tissue-based.

For the next assay, the target named is Thymidylate synthase (Homo sapiens, UniProt P04818). Kind of assay: Inhibition of human TS.
Thymidylate synthase, sequence (P04818 whole entry): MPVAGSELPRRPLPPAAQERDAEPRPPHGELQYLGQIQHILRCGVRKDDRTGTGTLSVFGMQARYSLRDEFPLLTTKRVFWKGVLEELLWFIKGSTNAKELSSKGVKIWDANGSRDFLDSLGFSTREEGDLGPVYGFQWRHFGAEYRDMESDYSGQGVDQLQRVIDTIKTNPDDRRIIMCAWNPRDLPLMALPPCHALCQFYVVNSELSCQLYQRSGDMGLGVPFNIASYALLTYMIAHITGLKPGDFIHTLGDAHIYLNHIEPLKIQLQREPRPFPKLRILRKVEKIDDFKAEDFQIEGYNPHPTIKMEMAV
Assay [5] can be described thus: Inhibition of Lacticaseibacillus casei TS.

For orientation: inhibition in vivo means the percentage by which the read-out fell short of the control. What is called IC50 is the concentration that inhibits the measured activity by half. The low end stands for greater potency in that assay, the high end for weaker potency in that assay. In the case of `CCCC1N(Cc2ccc(-c3ccccc3-c3nn[nH]n3)cc2)C(=O)c2ccccc2N1C` (stereo not drawn), the inhibition in vivo at 15 mg/kg with Rattus norvegicus [1] was 88%. The molecule also gave an IC50 in assay [2] of 540 nM. As usually defined, the inhibition is the share of the control response that was lost under treatment. Regarding `CCCn1cnc2ccccc2c1=O`, the inhibition at 50 µg/mL was found to be 5.5% in the assay on Fusarium graminearum, 4.9% with Fusarium oxysporum and 0.9% with Cytospora mali. For `CCCCc1nc2ccc([C@]3(C)C[C@H]4CCCN4O3)cc2c(=O)n1Cc1ccc(-c2ccccc2-c2nn[nH]n2)cc1`, the Activity in the assay on Rattus norvegicus [3] is 55 mmHg. Same read-out and setting: to `CCCCc1nc2ccc([C@@]3(C(=O)N4CCCCC4)C[C@H]4CCCN4O3)cc2c(=O)n1Cc1ccc(-c2ccccc2-c2nnn[nH]2)cc1` belongs 55 mmHg; to `CCCCc1nc2ccc([C@H]3C[C@H]4CC[C@H](C)N4O3)cc2c(=O)n1Cc1ccc(-c2ccccc2-c2nnn[nH]2)cc1`, 55 mmHg; to `CCCCc1nc2ccc([C@@]3(C)C[C@H]4CCCN4O3)cc2c(=O)n1Cc1ccc(-c2ccccc2-c2nn[nH]n2)cc1`, 55 mmHg. Same read-out and setting: to `CCCCc1nc2ccc([C@]3(CC)C[C@H]4CCCN4O3)cc2c(=O)n1Cc1ccc(-c2ccccc2-c2nn[nH]n2)cc1` belongs 55 mmHg.

Turning to `CCn1cnc2ccc(Cl)cc2c1=O`, the inhibition at 50 µg/mL with Fusarium graminearum was found to be 5.5%; in the assay with Fusarium oxysporum, 4.9%; in the assay with Cytospora mali, 0.9%. On to `Cc1nc2ccc(N(Cc3ccccc3Cl)C(=O)c3ccccc3)cc2c(=O)n1Cc1ccc(-c2ccccc2-c2nn[nH]n2)cc1`, for which the IC50 in assay [4] amounted to 0.06 nM. In [4], `CCCCCN(C(=O)c1ccccc1)c1ccc2nc(CCC)n(Cc3ccc(-c4ccccc4-c4nn[nH]n4)cc3)c(=O)c2c1` showed an IC50 of 1 nM.

For `Cc1nc2ccc(N(Cc3ccccc3)C(=O)c3ccccc3)cc2c(=O)n1Cc1ccc(-c2ccccc2-c2nnn[nH]2)cc1`, the IC50 in [4] was found to be 0.22 nM. Molecule `CCc1nc2ccc(N(Cc3ccccc3Cl)C(=O)c3ccccc3)cc2c(=O)n1Cc1ccc(-c2ccccc2-c2nn[nH]n2)cc1` returned an IC50 in assay [4] of 0.22 nM.

Consider `CCCc1nc2ccc(N(Cc3ccccc3)C(=O)OC(C)(C)C)cc2c(=O)n1Cc1ccc(-c2ccccc2-c2nnn[nH]2)cc1`, for which, in assay [4], the IC50 came out at 0.46 nM. Against the preceding molecule, the IC50 is about 2.1-fold higher. On to `CCCn1cnc2ccc(Br)cc2c1=O`, for which the inhibition at 50 µg/mL turned out to be 55% in the assay with Fusarium graminearum, 47.2% in the assay with Fusarium oxysporum and 0.9% in the assay on Cytospora mali.

Turning to `CCCCc1nc2ccc([C@H]3C[C@H]4CCCN4O3)cc2c(=O)n1Cc1ccc(-c2ccccc2-c2nnn[nH]2)cc1`, the Activity in the assay with Rattus norvegicus [3] came to 55 mmHg. For the molecule `COC(=O)[C@@H](NC(=O)c1ccc(Sc2c(C)ccc3nc(N)[nH]c(=O)c23)s1)c1ccccc1`, the IC50 against Thymidylate synthase is 3 nM; in assay [5], 200 nM. Take `CCc1nc2ccc(N(Cc3ccccc3)C(=O)c3cccs3)cc2c(=O)n1Cc1ccc(-c2ccccc2-c2nn[nH]n2)cc1`: the IC50 in [4] came to 0.22 nM. As to `COC(=O)[C@@H](NC(=O)c1ccc(Sc2c(C)ccc3nc(N)nc(O)c23)cc1)c1cccc(O)c1`, the IC50 at Thymidylate synthase came out at 3 nM; in assay [5], 200 nM.

In the case of `CCc1nc2ccc(N(CC=C(C)C)C(=O)c3ccccc3)cc2c(=O)n1Cc1ccc(-c2ccccc2-c2nn[nH]n2)cc1`, the IC50 in assay [4] amounted to 0.46 nM. This lies in the sub-nanomolar range.

As to `CCCCc1nc2ccc([C@H]3C[C@@]4(C)CCCCN4O3)cc2c(=O)n1Cc1ccc(-c2ccccc2-c2nnn[nH]2)cc1`, the Activity in the assay on Rattus norvegicus [3] was found to be 55 mmHg.

`CCCn1cnc2ccc(Cl)cc2c1=O`: the results for the inhibition at 50 µg/mL in the assay with Fusarium graminearum, in the assay on Fusarium oxysporum and in the assay on Cytospora mali were 5.5%, 4.9% and 40.9%, respectively.

`COC(=O)c1cccc(NC(=O)c2ccc(Sc3c(C)ccc4nc(N)[nH]c(=O)c34)cc2)c1`: the values for the IC50 (against Thymidylate synthase; in assay [5]) were 3 nM and 200 nM, respectively. Taken in the same sequence, the figures for `COC(=O)[C@@H](NC(=O)c1ccc(Sc2c(C)ccc3nc(N)nc(O)c23)cc1)c1ccccc1` were 3 nM and 200 nM. `C=CCn1cnc2ccc(Cl)cc2c1=O`: the inhibition at 50 µg/mL was 5.5% in the assay on Fusarium graminearum, 4.9% with Fusarium oxysporum and 28.3% in the assay on Cytospora mali. In assay [4], `CC(C)c1nc2ccc(N(Cc3ccccc3)C(=O)c3cccs3)cc2c(=O)n1Cc1ccc(-c2ccccc2-c2nnn[nH]2)cc1` came in with an IC50 of 0.22 nM. That is a sub-nanomolar value. Take `CCCCc1nc2ccc([C@@]3(c4ccccc4)C[C@H]4CCCN4O3)cc2c(=O)n1Cc1ccc(-c2ccccc2-c2nnn[nH]2)cc1`: the Activity in the assay on Rattus norvegicus [3] is on record as 55 mmHg. On the same count and under the same terms, then `CCCCc1nc2ccc([C@@]3(CO)C[C@H]4CCCN4O3)cc2c(=O)n1Cc1ccc(-c2ccccc2-c2nnn[nH]2)cc1`, with 55 mmHg; and `CCCCc1nc2ccc([C@@]3(C(=O)N4CCCC4)C[C@H]4CCCN4O3)cc2c(=O)n1Cc1ccc(-c2ccccc2-c2nnn[nH]2)cc1`, with 55 mmHg; and `CCCCc1nc2ccc([C@@]3(C)C[C@H]4CC[C@H](C)N4O3)cc2c(=O)n1Cc1ccc(-c2ccccc2-c2nnn[nH]2)cc1`, with 55 mmHg.

Take `Cc1ccc2nc(N)[nH]c(=O)c2c1Sc1ccc(C(=O)Nc2cccc(C(=O)O)c2)cc1`: the IC50 against Thymidylate synthase stood at 3 nM; in assay [5] it was 200 nM. Taken in the same sequence, the figures for `COC(=O)[C@H](Cc1ccc(O)c(O)c1)NC(=O)c1ccc(Sc2c(C)ccc3nc(N)[nH]c(=O)c23)cc1` were 3 nM and 200 nM. In the case of `CCCCc1nc2ccc([C@]3(C)C[C@H]4CC[C@H](C)N4O3)cc2c(=O)n1Cc1ccc(-c2ccccc2-c2nnn[nH]2)cc1`, the Activity in the assay with Rattus norvegicus [3] is reported as 55 mmHg.

As to `CCCCc1nc2ccc([C@@]3(C(=O)O)C[C@H]4CCCN4O3)cc2c(=O)n1Cc1ccc(-c2ccccc2-c2nnn[nH]2)cc1`, the Activity in the assay with Rattus norvegicus [3] came to 55 mmHg. The same measure, in the same setting: then `CCCCc1nc2ccc([C@@]3(C)C[C@H]4CCCCN4O3)cc2c(=O)n1Cc1ccc(-c2ccccc2-c2nn[nH]n2)cc1`, with 55 mmHg. As to `C=CCn1cnc2ccc(F)cc2c1=O`, the inhibition at 50 µg/mL worked out at 5.5% in the assay on Fusarium graminearum, 4.9% with Fusarium oxysporum and 0.9% in the assay with Cytospora mali.

As for `CCn1cnc2ccc(F)cc2c1=O`, the inhibition at 50 µg/mL was found to be 5.5% in the assay on Fusarium graminearum, 4.9% in the assay with Fusarium oxysporum and 0.9% in the assay with Cytospora mali. As for `CCCCc1nc2ccc([C@]3(C)C[C@H]4CCCCN4O3)cc2c(=O)n1Cc1ccc(-c2ccccc2-c2nn[nH]n2)cc1`, the Activity with Rattus norvegicus [3] is 55 mmHg.

Regarding `C=CCn1cnc2ccccc2c1=O`, the inhibition at 50 µg/mL in the assay with Fusarium graminearum came out at 5.5%; in the assay with Fusarium oxysporum, 4.9%; in the assay on Cytospora mali it was 0.9%. For `Cc1cc(O)no1` [HYMEXAZOL], the inhibition at 50 µg/mL is 50.4% with Fusarium graminearum, 55.4% in the assay on Fusarium oxysporum and 22.5% with Cytospora mali. Taken in the same sequence, the figures for `CCn1cnc2ccccc2c1=O` were 5.5%, 4.9% and 0.9%. In the case of `COC(=O)[C@H](Cc1c[nH]c2ccccc12)NC(=O)c1ccc(Sc2c(C)ccc3nc(N)[nH]c(=O)c23)cc1`, the IC50 was determined as 3 nM on Thymidylate synthase and 200 nM in [5]. As for `CCCCc1nc2ccc([C@H]3C[C@H]4CCCCN4O3)cc2c(=O)n1Cc1ccc(-c2ccccc2-c2nnn[nH]2)cc1`, the Activity in the assay on Rattus norvegicus [3] was found to be 55 mmHg. On to `COC(=O)[C@H](Cc1ccccc1)NC(=O)c1ccc(Sc2c(C)ccc3nc(N)[nH]c(=O)c23)cc1`, for which the IC50 on Thymidylate synthase came out at 3 nM; in assay [5], 200 nM. Regarding `C=CCn1cnc2ccc(Br)cc2c1=O`, the inhibition at 50 µg/mL in the assay on Fusarium graminearum amounted to 5.5%; in the assay on Fusarium oxysporum it was 4.9%; with Cytospora mali, 30.4%. As for `COC(=O)[C@H](NC(=O)c1ccc(Sc2c(C)ccc3nc(N)[nH]c(=O)c23)cc1)c1ccccc1`, the IC50 against Thymidylate synthase was determined as 3 nM; in assay [5], 200 nM. With `CCn1cnc2ccc(Br)cc2c1=O`, the results for the inhibition at 50 µg/mL with Fusarium graminearum, in the assay on Fusarium oxysporum and in the assay on Cytospora mali were 5.5%, 4.9% and 0.9%, respectively. For `CC(C)c1nc2ccc(N(Cc3ccccc3)C(=O)c3ccccc3)cc2c(=O)n1Cc1ccc(-c2ccccc2-c2nnn[nH]2)cc1`, in assay [4], the IC50 worked out at 0.22 nM. With `CCCCc1nc2ccc([C@@]3(C(=O)N(C)C)C[C@H]4CCCN4O3)cc2c(=O)n1Cc1ccc(-c2ccccc2-c2nnn[nH]2)cc1`, the Activity in the assay with Rattus norvegicus [3] was 55 mmHg. As to `Cc1ccc2nc(N)nc(O)c2c1Sc1ccc(C(=O)N[C@H](C(=O)O)c2ccccc2)cc1`, the IC50 against Thymidylate synthase was found to be 3 nM; in assay [5] it was 200 nM. In assay [4], `CCc1nc2ccc(N(Cc3ccccc3)C(=O)c3ccncc3)cc2c(=O)n1Cc1ccc(-c2ccccc2-c2nn[nH]n2)cc1` returned an IC50 of 0.22 nM. For the molecule `CCCn1cnc2ccc(F)cc2c1=O`, the figures for the inhibition at 50 µg/mL in the assay with Fusarium graminearum, in the assay on Fusarium oxysporum and in the assay with Cytospora mali were 5.5%, 4.9% and 0.9%, respectively.
